Marks after values point to notes of the source that are not given here.
System: female rats
Assay: Plasma metabolite profiling (GC-MS, LC-MS, SPE-LC-MS) in female rats dosed once daily over 28 days (OECD 407)
Type: in vivo, rat
Set-up: key to TAG No 07 / Lysophosphatidylcholine (C17:0): ratio of treated group mean to untreated control group mean; key to 5-O-Methylsphingosine (d18:1) / Isopalmitic acid (C16:0) / Valine / Alanine / Ketoleucine / Serine / Lactate / Arginine: ratio of treated group mean to untreated control mean
Details: high dose; for 3-O-Methylsphingosine (d18:1) / 5-O-Methylsphingosine (d18:1) / 16-Methylheptadecanoic acid / Arachidonic acid (C20:cis[5,8,11,14]4) / Ceramide (d18:1, C24:1) / Ceramide (d18:1,C24:0) / Cholesterol / Cholesterolester No 01 / Dodecanol / Elaidic acid (C18:trans[9]1) / Galactose, lipid fraction / Glycerol phosphate, lipid fraction / Heptadecanoic acid (C17:0) / Lignoceric acid (C24:0) / Lysophosphatidylcholine (C17:0) / Phosphate, lipid fraction / Phosphatidylcholine (C18:0, C20:3) / Phytosphingosine / Sphingomyelin (d18:1, C16:0) / Sphingomyelin (d18:1,C24:0) / Sphingomyelin (d18:2, C16:0) / Sphingomyelin (d18:2,C18:0) / Stearic acid (C18:0) / TAG No 07 / Tricosanoic acid (C23:0) / alpha-Tocopherol / beta-Sitosterol / erythro-Sphingosine (d18:1) / myo-Inositol, lipid fraction / myo-Inositol-2-phosphate, lipid fraction / threo-Sphingosine (d18:1): Table 13b; for Isopalmitic acid (C16:0): Table 17a; for Alanine / Arginine / Ketoleucine / Lactate / Proline / Serine / Valine: Table 17b
Method: Each dose group in the studies consisted of five rats per sex. Additional groups of each 5 male and female animals served as controls. […] All animals of the animal population were kept under the same constant temperature (20-24±3° C.) and the same constant humidity (30-70%). The animals of the animal population were fed ad libitum. The food to be used was essentially free of chemical or microbial contaminants. Drinking water was also offered ad libitum. Accordingly, the water was free of chemical and microbial contaminants as laid down in the European Drinking Water Directive 98/83/EG. The illumination period was 12 hours light followed by 12 hours darkness (12 hours light, from 6:00 to 18:00, and 12 hours darkness, from 18:00 to 6:00). […] The test substances (compounds) in the Tables 1 to 17 below were dosed and administered as described in the Table 18.
In the morning of day 7, 14, and 28, blood was taken from the retroorbital venous plexus from fasted anaesthetized animals. From each animal, 1 ml of blood was collected with EDTA as anticoagulant. The samples were centrifuged for generation of plasma. All plasma samples were covered with a N2 atmosphere and then stored at −80° C. until analysis.
For mass spectrometry-based metabolite profiling analyses plasma samples were extracted and a polar and a non-polar (lipid) fraction was obtained. For GC-MS analysis, the non-polar fraction was treated with methanol under acidic conditions to yield the fatty acid methyl esters. Both fractions were further derivatised with O-methyl-hydroxyamine hydrochloride and pyridine to convert Oxogroups to O-methyloximes and subsequently with a silylating agent before analysis. In LC-MS analysis, both fractions were reconstituted in appropriate solvent mixtures. HPLC was performed by gradient elution on reversed phase separation columns. Mass spectrometric detection which allows target and high sensitivity MRM (Multiple Reaction Monitoring) profiling in parallel to a full screen analysis was applied as described in WO2003073464.
Steroids and their metabolites were measured by online SPE-LC-MS (Solid phase extraction-LC-MS).
Following comprehensive analytical validation steps, the data for each analyte were normalized against data from pool samples. These samples were run in parallel through the whole process to account for process variability. The significance of treatment group values specific for sex, treatmentduration and metabolite was determined by comparing means of the treated groups to the means of the respective untreated control groups using WELCH-test and quantified with treatment ratios versus control and p-values.
The identification of the most important biomarkers per toxicity pattern was done by a ranking of the analytes in the tables below. Therefore the metabolic changes in reference treatments of a given pattern (shown in the table) were compared with changes of the same metabolite in other unrelated treatments. […] The maximum absolute value of the respective TVALUE was taken to indicate the most important metabolite for the pattern.

For C=CCN1C[C@H](C(=O)N(CCCN(C)C)C(=O)NCC)C[C@@H]2c3cccc4[nH]cc(c34)C[C@H]21 [Cabergoline], the “3-O-Methylsphingosine (d18:1)” value (f7) was 0.68 *, the “5-O-Methylsphingosine (d18:1)” value (f7) was 0.66 * and the 16-Methylheptadecanoic acid (f7) was 0.57 *. For the same compound, the “Arachidonic acid (C20:cis[5,8,11,14]4)” value (f7) was 0.71 *, the “Ceramide (d18:1, C24:1)” value (f7) was 0.57 * and the “Ceramide (d18:1,C24:0)” value (f7) was 0.53 *. The Cholesterol (f7) was 0.72 *, the “Cholesterolester No 01” value (f7) was 0.84^ and the Dodecanol (f7) was 0.84 *. The “Elaidic acid (C18:trans[9]1)” value (f7) was 0.66 *, the “Galactose, lipid fraction” value (f7) was 0.79^ and the “Glycerol phosphate, lipid fraction” value (f7) was 0.72 *. For the same compound, the “Heptadecanoic acid (C17:0)” value (f7) was 0.85^, the “Lignoceric acid (C24:0)” value (f7) was 0.54 * and the “Lysophosphatidylcholine (C17:0)” value (f7) was 0.83 *. For the same compound, the “Phosphate, lipid fraction” value (f7) was 0.73 *, the “Phosphatidylcholine (C18:0, C20:3)” value (f7) was 0.85 * and the Phytosphingosine (f7) was 0.64 *. For the same compound, the “Sphingomyelin (d18:1, C16:0)” value (f7) was 0.94^, the “Sphingomyelin (d18:1,C24:0)” value (f7) was 0.84 * and the “Sphingomyelin (d18:2, C16:0)” value (f7) was 0.67 *. The “Sphingomyelin (d18:2,C18:0)” value (f7) was 0.89 *, the “Stearic acid (C18:0)” value (f7) was 0.79 * and the “TAG No 07” value (f7) was 0.91^. The “Tricosanoic acid (C23:0)” value (f7) was 0.71 *, the alpha-Tocopherol (f7) was 0.82^ and the beta-Sitosterol (f7) was 0.46 *. For the same compound, the “erythro-Sphingosine (d18:1)” value (f7) was 0.66 *, the “myo-Inositol, lipid fraction” value (f7) was 0.87 * and the “myo-Inositol-2-phosphate, lipid fraction” value (f7) was 0.61 *. The “threo-Sphingosine (d18:1)” value (f7) was 0.75 *, the “3-O-Methylsphingosine (d18:1)” value (f14) was 0.36 * and the “5-O-Methylsphingosine (d18:1)” value (f14) was 0.34 *. For the same compound, the 16-Methylheptadecanoic acid (f14) was 0.59 *, the “Arachidonic acid (C20:cis[5,8,11,14]4)” value (f14) was 0.32 * and the “Ceramide (d18:1, C24:1)” value (f14) was 0.6 *. The “Ceramide (d18:1,C24:0)” value (f14) was 0.57 *, the Cholesterol (f14) was 0.36 * and the “Cholesterolester No 01” value (f14) was 0.79 *. The Dodecanol (f14) was 0.44 *, the “Elaidic acid (C18:trans[9]1)” value (f14) was 0.5 * and the “Galactose, lipid fraction” value (f14) was 0.48 *. The “Glycerol phosphate, lipid fraction” value (f14) was 0.34 *, the “Heptadecanoic acid (C17:0)” value (f14) was 0.61 * and the “Lignoceric acid (C24:0)” value (f14) was 0.33 *. The “Lysophosphatidylcholine (C17:0)” value (f14) was 0.72 *, the “Phosphate, lipid fraction” value (f14) was 0.57 * and the “Phosphatidylcholine (C18:0, C20:3)” value (f14) was 0.72 *. For the same compound, the Phytosphingosine (f14) was 0.55 *, the “Sphingomyelin (d18:1, C16:0)” value (f14) was 0.79 * and the “Sphingomyelin (d18:1,C24:0)” value (f14) was 0.62 *. For the same compound, the “Sphingomyelin (d18:2, C16:0)” value (f14) was 0.58 *, the “Sphingomyelin (d18:2,C18:0)” value (f14) was 0.67 * and the “Stearic acid (C18:0)” value (f14) was 0.42 *. For the same compound, the “TAG No 07” value (f14) was 0.73 *, the “Tricosanoic acid (C23:0)” value (f14) was 0.55 * and the alpha-Tocopherol (f14) was 0.4 *. The beta-Sitosterol (f14) was 0.3 *, the “erythro-Sphingosine (d18:1)” value (f14) was 0.37 * and the “myo-Inositol, lipid fraction” value (f14) was 0.48 *. The “myo-Inositol-2-phosphate, lipid fraction” value (f14) was 0.31 *, the “threo-Sphingosine (d18:1)” value (f14) was 0.44 * and the “3-O-Methylsphingosine (d18:1)” value (f28) was 0.11 *. The “5-O-Methylsphingosine (d18:1)” value (f28) was 0.13 *, the 16-Methylheptadecanoic acid (f28) was 0.28 * and the “Arachidonic acid (C20:cis[5,8,11,14]4)” value (f28) was 0.16 *. For the same compound, the “Ceramide (d18:1, C24:1)” value (f28) was 0.39 *, the “Ceramide (d18:1,C24:0)” value (f28) was 0.36 * and the Cholesterol (f28) was 0.16 *. The “Cholesterolester No 01” value (f28) was 0.56 *, the Dodecanol (f28) was 0.27 * and the “Elaidic acid (C18:trans[9]1)” value (f28) was 0.33 *. The “Galactose, lipid fraction” value (f28) was 0.24 *, the “Glycerol phosphate, lipid fraction” value (f28) was 0.19 * and the “Heptadecanoic acid (C17:0)” value (f28) was 0.47 *. The “Lignoceric acid (C24:0)” value (f28) was 0.15 *, the “Lysophosphatidylcholine (C17:0)” value (f28) was 0.57 * and the “Phosphate, lipid fraction” value (f28) was 0.36 *. For the same compound, the “Phosphatidylcholine (C18:0, C20:3)” value (f28) was 0.59 *, the Phytosphingosine (f28) was 0.34 * and the “Sphingomyelin (d18:1, C16:0)” value (f28) was 0.51 *. The “Sphingomyelin (d18:1,C24:0)” value (f28) was 0.36 *, the “Sphingomyelin (d18:2, C16:0)” value (f28) was 0.33 * and the “Sphingomyelin (d18:2,C18:0)” value (f28) was 0.3 *. The “Stearic acid (C18:0)” value (f28) was 0.28 *, the “TAG No 07” value (f28) was 0.4 * and the “Tricosanoic acid (C23:0)” value (f28) was 0.23 *. The alpha-Tocopherol (f28) was 0.16 *, the beta-Sitosterol (f28) was 0.13 * and the “erythro-Sphingosine (d18:1)” value (f28) was 0.13 *. The “myo-Inositol, lipid fraction” value (f28) was 0.23 *, the “myo-Inositol-2-phosphate, lipid fraction” value (f28) was 0.08 * and the “threo-Sphingosine (d18:1)” value (f28) was 0.24 *.

CN(N=O)C(=O)N[C@H]1C(O)O[C@H](CO)[C@@H](O)[C@@H]1O (mixture of isomers) [Streptozotocin] was tested, and the “Isopalmitic acid (C16:0)” value (f7, female rats) was 0.99, the Alanine (f7, female rats) was 0.79 and the Arginine (f7, female rats) was 0.78. It also gave a Ketoleucine (f7, female rats) of 0.85, a Lactate (f7, female rats) of 0.77 and a Proline (f7, female rats) of 0.81. The Serine (f7, female rats) was 0.88, the Valine (f7, female rats) was 0.77 and the “Isopalmitic acid (C16:0)” value (f14, female rats) was 1.12 *. For the same compound, the Alanine (f14, female rats) was 0.91, the Arginine (f14, female rats) was 0.88 and the Ketoleucine (f14, female rats) was 0.9. It also gave a Lactate (f14, female rats) of 0.83, a Proline (f14, female rats) of 0.83 and a Serine (f14, female rats) of 0.83. For the same compound, the Valine (f14, female rats) was 0.85, the “Isopalmitic acid (C16:0)” value (f28, female rats) was 1.3 * and the Alanine (f28, female rats) was 0.87. For the same compound, the Arginine (f28, female rats) was 1.03, the Ketoleucine (f28, female rats) was 0.87 and the Lactate (f28, female rats) was 0.57. It also gave a Proline (f28, female rats) of 0.9, a Serine (f28, female rats) of 0.98 and a Valine (f28, female rats) of 0.98.
